Measured values from patent US20240286998A1, “F[…], ANALOGUES THEREOF, AND METHODS USING SAME” (Saint Joseph's University, priority 2021, published 2024).
pEC50: −log10 of the molar value. Like-named read-outs stand apart in the source and are kept apart here.

Legend:
[1] = target: Serotonin 5-HT2A (human) (Homo sapiens (Human), UniProt P28223); experiment: 5-HT2A receptor binding, [3H]-ketanserin competition in membrane fractions; conditions: 1 nM [3H]-ketanserin, Cheng-Prusoff, N=1-3
[2] = target: 5-HT2A (Homo sapiens (Human), UniProt P28223); experiment: 5-HT2A Gq-mediated calcium flux functional assay; assay type: cell-based
[3] = target: 5-HT2B (Homo sapiens (Human), UniProt P41595); experiment: 5-HT2B Gq-mediated calcium flux functional assay; assay type: cell-based
Chain of 5-HT2B (P41595 whole entry): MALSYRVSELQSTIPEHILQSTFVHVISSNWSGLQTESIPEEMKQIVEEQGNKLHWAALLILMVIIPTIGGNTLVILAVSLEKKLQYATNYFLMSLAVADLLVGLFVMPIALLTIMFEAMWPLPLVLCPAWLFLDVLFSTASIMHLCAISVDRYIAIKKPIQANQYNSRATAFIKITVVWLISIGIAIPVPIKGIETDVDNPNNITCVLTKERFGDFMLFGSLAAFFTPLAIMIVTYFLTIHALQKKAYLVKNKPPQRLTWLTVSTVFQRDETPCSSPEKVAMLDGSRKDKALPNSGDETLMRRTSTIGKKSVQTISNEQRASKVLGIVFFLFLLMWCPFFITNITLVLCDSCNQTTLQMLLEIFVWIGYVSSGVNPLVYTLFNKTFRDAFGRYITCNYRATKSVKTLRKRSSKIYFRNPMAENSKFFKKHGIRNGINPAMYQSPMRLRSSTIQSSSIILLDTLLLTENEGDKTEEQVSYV

[4] = target: 5-HT2C (Homo sapiens (Human), UniProt P28335); experiment: 5-HT2C Gq-mediated calcium flux functional assay; assay type: cell-based; conditions: for 5-HT2C-Ca2+ FLUX Emax (% 5-HT): IA = Inactive, N=1-3
Chain of 5-HT2C (P28335 whole entry, looked up): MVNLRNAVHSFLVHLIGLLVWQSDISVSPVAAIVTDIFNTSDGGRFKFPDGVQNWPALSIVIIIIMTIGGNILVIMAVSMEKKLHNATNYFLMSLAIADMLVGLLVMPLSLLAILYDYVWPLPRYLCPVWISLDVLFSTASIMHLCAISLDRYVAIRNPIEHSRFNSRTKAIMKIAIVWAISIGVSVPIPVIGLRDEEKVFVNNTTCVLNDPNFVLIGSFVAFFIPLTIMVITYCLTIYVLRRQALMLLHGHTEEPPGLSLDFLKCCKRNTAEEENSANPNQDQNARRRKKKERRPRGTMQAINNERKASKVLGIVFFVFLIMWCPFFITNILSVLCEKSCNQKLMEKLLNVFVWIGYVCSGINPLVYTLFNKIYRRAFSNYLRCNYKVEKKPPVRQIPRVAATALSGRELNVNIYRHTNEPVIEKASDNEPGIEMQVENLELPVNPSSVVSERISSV

## CCN(C)CCc1c[nH]c2c(F)cccc12 [Example 7, N-ethyl-2-(7-fluoro-1H-indol-3-yl)-N-methylethan-1-amine]
[1]
  5-HT2A pKi ± SEM: 6.02

## C=CCN(CCc1c[nH]c2ccc(F)cc12)C1CCC1 [Example 14, N-allyl-N-(2-(5-fluoro-1H-indol-3-yl)ethyl)cyclobutanamine]
[1]
  5-HT2A pKi ± SEM: 6.09

## CC(C)N(CC#N)CCc1c[nH]c2ccc(F)cc12 [compound 17, 2-((2-(5-fluoro-1H-indol-3-yl)ethyl)(isopropyl)amino)acetonitrile]
[1]
  5-HT2A pKi ± SEM: 5.41

## CCCN(CC)CCc1c[nH]c2ccc(F)c(F)c12 [compound 21, N-(2-(4,5-difluoro-1H-indol-3-yl)ethyl)-N-ethylpropan-1-amine]
[1]
  5-HT2A pKi ± SEM: 6.15

## C#CCN(CCc1c[nH]c2ccc(F)cc12)C(C)C [compound 34, N-(2-(5-fluoro-1H-indol-3-yl)ethyl)-N-isopropylprop-2-yn-1-amine]
[1]
  5-HT2A pKi ± SEM: 5.78

## C=CCN(CCC)CCc1c[nH]c2ccc(F)cc12 [compound 35, N-(2-(5-fluoro-1H-indol-3-yl)ethyl)-N-propylprop-2-en-1-amine]
[1]
  5-HT2A pKi ± SEM: 6.38 ± 0.29

## CCCN(CC)CCc1c[nH]c2cc(Cl)c(F)cc12 [compound 37, N-(2-(6-chloro-5-fluoro-1H-indol-3-yl)ethyl)-N-ethylpropan-1-amine]
[1]
  5-HT2A pKi ± SEM: 6.04 ± 0.05

## CC(C)CN(C)CCc1c[nH]c2ccc(F)cc12 [compound 39, N-(2-(5-fluoro-1H-indol-3-yl)ethyl)-N,2-dimethylpropan-1-amine]
[1]
  5-HT2A pKi ± SEM: 6.12

## CCCN(CC)CCc1c[nH]c2c(F)cc(F)cc12 [compound 72, N-[2-(5,7-difluoro-1H-indol-3-yl)ethyl]-N-ethylpropan-1-amine]
[1]
  5-HT2A pKi ± SEM: 6.30 ± 0.06

## CCCN(CC)CCc1c[nH]c2c(F)c(F)ccc12 [compound 82, N-(2-(6,7-difluoro-1H-indol-3-yl)ethyl)-N-ethylpropan-1-amine]
[2]
  pEC50: 7.98
[2]; IA = Inactive, N=1-3
  5-HT2A-Ca2+ FLUX Emax (% 5-HT): 90.4 ± 0.7 % 5-HT
[3]
  pEC50: 7.18
[3]; IA = Inactive, N=1-3
  5-HT2B-Ca2+ FLUX Emax (% 5-HT): 86.3 ± 0.8 % 5-HT
[1]
  5-HT2A pKi ± SEM: 6.52
[4]
  pEC50: 6.71
  5-HT2C-Ca2+ FLUX Emax (% 5-HT): 89.6 ± 1.7 % 5-HT

## CCC(C)N(CCc1c[nH]c2ccc(F)cc12)C1CCC1 (stereo not shown) [compound 158, N-(sec-butyl)-N-(2-(5-fluoro-1H-indol-3-yl)ethyl)cyclobutanamine]
[1]
  5-HT2A pKi ± SEM: 6.08 ± 0.15

## CN(CCc1c[nH]c2ccc(F)cc12)C1CC1 [compound 160, N-(2-(5-fluoro-1H-indol-3-yl)ethyl)-N-methylcyclopropanamine]
[1]
  5-HT2A pKi ± SEM: 7.41 ± 0.33

## CCCN(CCc1c[nH]c2ccc(F)cc12)C1CC1 [compound 161, N-[2-(5-fluoro-1H-indol-3-yl)ethyl]-N-propylcyclopropanamine]
[1]
  5-HT2A pKi ± SEM: 6.50

## CCCN(CCc1c[nH]c2c(F)cccc12)C1CCC1 [compound 162, N-(2-(7-fluoro-1H-indol-3-yl)ethyl)-N-propylcyclobutanamine]
[1]
  5-HT2A pKi ± SEM: 5.91

## CCCN(CCc1c[nH]c2c(F)cccc12)C(C)CC (stereo not shown) [compound 163, N-[2-(7-fluoro-1H-indol-3-yl)ethyl]-N-propylbutan-2-amine]
[1]
  5-HT2A pKi ± SEM: 5.65 ± 0.004

## CCCN(CC)CCc1c[nH]c2c(F)c(F)c(F)cc12 [compound 165, N-ethyl-N-[2-(5,6,7-trifluoro-1H-indol-3-yl)ethyl]propan-1-amine]
[2]
  pEC50: 8.34
[2]; IA = Inactive, N=1-3
  5-HT2A-Ca2+ FLUX Emax (% 5-HT): 103.0 ± 0.8 % 5-HT
[3]
  pEC50: 8.13
[3]; IA = Inactive, N=1-3
  5-HT2B-Ca2+ FLUX Emax (% 5-HT): 102.4 ± 0.8 % 5-HT
[1]
  5-HT2A pKi ± SEM: 6.69
[4]
  pEC50: 7.41
  5-HT2C-Ca2+ FLUX Emax (% 5-HT): 102.8 ± 1.7 % 5-HT

## CCN(C)CCc1c[nH]c2c(C)cc(F)cc12 [compound 169, N-ethyl-2-(5-fluoro-7-methyl-1H-indol-3-yl)-N-methylethan-1-amine]
[1]
  5-HT2A pKi ± SEM: 6.05

## CCC(C)N(CCc1c[nH]c2ccc(F)cc12)C1CC1 (stereo not shown) [compound 172, N-(sec-butyl)-N-(2-(5-fluoro-1H-indol-3-yl)ethyl)cyclopropanamine]
[2]
  pEC50: 8.40
[2]; IA = Inactive, N=1-3
  5-HT2A-Ca2+ FLUX Emax (% 5-HT): 94.0 ± 0.6 % 5-HT
[3]
  pEC50: 8.19
[3]; IA = Inactive, N=1-3
  5-HT2B-Ca2+ FLUX Emax (% 5-HT): 93.5 ± 0.8 % 5-HT
[1]
  5-HT2A pKi ± SEM: 6.47
[4]
  pEC50: 6.82
  5-HT2C-Ca2+ FLUX Emax (% 5-HT): 82.3 ± 1.7 % 5-HT

## Fc1ccc2[nH]cc(CCN(C3CCC3)C3CC3)c2c1 [compound 173, N-cyclopropyl-N-(2-(5-fluoro-1H-indol-3-yl)ethyl)cyclobutanamine]
[2]
  pEC50: 8.14
[2]; IA = Inactive, N=1-3
  5-HT2A-Ca2+ FLUX Emax (% 5-HT): 87.4 ± 0.7 % 5-HT
[3]
  pEC50: 7.75
[3]; IA = Inactive, N=1-3
  5-HT2B-Ca2+ FLUX Emax (% 5-HT): 82.8 ± 0.8 % 5-HT
[1]
  5-HT2A pKi ± SEM: 6.58
[4]
  pEC50: 6.52
  5-HT2C-Ca2+ FLUX Emax (% 5-HT): 80.4 ± 1.2 % 5-HT

## CCN(C)CCc1c[nH]c2c(Br)cc(F)cc12 [compound 174, 2-(7-bromo-5-fluoro-1H-indol-3-yl)-N-ethyl-N-methylethan-1-amine]
[2]
  pEC50: 7.73
[2]; IA = Inactive, N=1-3
  5-HT2A-Ca2+ FLUX Emax (% 5-HT): 38.2 ± 1.4 % 5-HT
[1]
  5-HT2A pKi ± SEM: 6.42
[4]
  pEC50: 7.88
  5-HT2C-Ca2+ FLUX Emax (% 5-HT): 39.9 ± 1.1 % 5-HT

## CCN(C)CCc1c[nH]c2cc(C)c(F)cc12 [compound 175, N-ethyl-2-(5-fluoro-6-methyl-1H-indol-3-yl)-N-methylethan-1-amine]
[2]
  pEC50: 8.17
[2]; IA = Inactive, N=1-3
  5-HT2A-Ca2+ FLUX Emax (% 5-HT): 48.6 ± 2.8 % 5-HT
[1]
  5-HT2A pKi ± SEM: 5.96
[4]
  pEC50: 6.99
  5-HT2C-Ca2+ FLUX Emax (% 5-HT): 51.2 ± 2.0 % 5-HT

## C#CCN(CCc1c[nH]c2ccc(F)cc12)C(C)CC (stereo not shown) [compound 176, N-(2-(5-fluoro-1H-indol-3-yl)ethyl)-N-(prop-2-yn-1-yl)butan-2-amine]
[2]
  pEC50: 7.39
[2]; IA = Inactive, N=1-3
  5-HT2A-Ca2+ FLUX Emax (% 5-HT): 97.8 ± 1.1 % 5-HT
[3]
  pEC50: 7.54
[3]; IA = Inactive, N=1-3
  5-HT2B-Ca2+ FLUX Emax (% 5-HT): 103.0 ± 0.6 % 5-HT
[1]
  5-HT2A pKi ± SEM: 5.89
[4]
  pEC50: 6.72
  5-HT2C-Ca2+ FLUX Emax (% 5-HT): 99.6 ± 1.5 % 5-HT

## CCC(C)N(CC#N)CCc1c[nH]c2ccc(F)cc12 (stereo not shown) [compound 177, 2-(sec-butyl(2-(5-fluoro-1H-indol-3-yl)ethyl)amino)acetonitrile]
[1]
  5-HT2A pKi ± SEM: 5.71

## CCCN(CC#N)CCc1c[nH]c2c(F)cccc12 [compound 181, 2-((2-(7-fluoro-1H-indol-3-yl)ethyl)(propyl)amino)acetonitrile]
[2]; IA = Inactive, N=1-3
  5-HT2A-Ca2+ FLUX Emax (% 5-HT): 68.7 ± 1.7 % 5-HT
[2]; IA = Inactive, N=1-3, read-out: 5-HT2A-Ca2+ FLUX pEC50 (converted)
  EC50: 58.9 nM
[3]; IA = Inactive, N=1-3
  5-HT2B-Ca2+ FLUX Emax (% 5-HT): 36.8 ± 0.7 % 5-HT
[3]; IA = Inactive, N=1-3, read-out: 5-HT2B-Ca2+ FLUX pEC50 (converted)
  EC50: 295 nM
[1]
  5-HT2A pKi ± SEM: 5.75

## CCN(C)CCc1c[nH]c2c(Cl)cc(F)cc12 [compound 182, 2-(7-chloro-5-fluoro-1H-indol-3-yl)-N-ethyl-N-methylethan-1-amine]
[1]
  5-HT2A pKi ± SEM: 6.62

## CCCN1CCC[C@@H]1Cc1c[nH]c2ccc(F)cc12 [compound 184, (R)-5-fluoro-3-((1-propylpyrrolidin-2-yl)methyl)-1H-indole]
[1]
  5-HT2A pKi ± SEM: 6.60

## CN1CCC[C@@H]1Cc1c[nH]c2cc(F)c(F)cc12 [compound 185, (R)-5,6-difluoro-3-((1-methylpyrrolidin-2-yl)methyl)-1H-indole]
[1]
  5-HT2A pKi ± SEM: 6.90

## CN1CCC[C@@H]1Cc1c[nH]c2c(F)cccc12 [compound 186, (R)-7-fluoro-3-((1-methylpyrrolidin-2-yl)methyl)-1H-indole]
[1]
  5-HT2A pKi ± SEM: 6.47
